From US20240415918A1, “Polypeptide and its use as a CCK receptor agonist/antagonist” (Centre for Regenerative Medicine & Health, Hong Kong …, priority 2021, published 2024)

What was measured:
Assay type in all cases: cell-based
[1] = target: T1, CCK-B receptors (CHO-CCK) (Homo sapiens, UniProt P32239); test: Calcium flux (Fluo-8) antagonist test on CHO-CCK model cells in presence of CCK8; settings: in presence of 10 nM CCK8
T1 construct: expressed in transfected cells; host or cells: CHO (CHO-CCK model cells)
T1 sequence (P32239 1-447): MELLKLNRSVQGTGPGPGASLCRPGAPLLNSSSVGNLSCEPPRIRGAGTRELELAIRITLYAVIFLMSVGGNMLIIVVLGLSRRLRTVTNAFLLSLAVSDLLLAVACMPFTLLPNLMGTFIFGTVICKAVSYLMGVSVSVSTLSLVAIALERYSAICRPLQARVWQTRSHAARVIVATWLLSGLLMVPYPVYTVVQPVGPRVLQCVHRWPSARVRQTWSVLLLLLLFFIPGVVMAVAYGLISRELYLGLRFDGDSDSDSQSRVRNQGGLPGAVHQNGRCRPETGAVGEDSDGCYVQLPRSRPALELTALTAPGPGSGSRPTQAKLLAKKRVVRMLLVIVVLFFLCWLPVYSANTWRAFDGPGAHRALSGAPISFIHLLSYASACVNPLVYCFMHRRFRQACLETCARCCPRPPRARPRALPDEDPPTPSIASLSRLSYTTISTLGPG

neocortex of senile mice = test: Long-term potentiation, in vitro field potential recording of brain slices (MED64), senile mice; settings: compound injected for five minutes
Text: Long-term potentiation (LTP) is considered by researchers to be one of the memory mechanisms. We used an in vitro electrophysiological electrical signal recording method to investigate whether compound HT-267 can induce long-term potentiation in the neocortex of senile mice.
We used an MED64 low-noise multi-electrode recording system to record the electrical signals of brain slices cultured in vitro.

[2] = target: T1, CCK-B receptors (CHO-CCK); test: Calcium flux (Fluo-8) agonist test on CHO-CCK model cells; settings: CHO-CCK cells
How it was run: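 Agonist-mode Fluo-8 calcium flux read on CHO-CCK cells after dye loading 30 min at 37 °C plus 30 min at room temperature.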

EC50 [1]: 23.8 nM
EC50 ([2]; Fluo-8 calcium flux, 100% control = 20 nM CCK8): 0.113 nM
agonistic/antagonistic activity on CCK-B receptors (in words) ([2]; calcium signal): more active
SMILES: CSCC[C@H](NC(=O)[C@@H](Cc1c[nH]c2ccccc12)NC(C)=O)C(=O)N[C@@H](CC(=O)O)C(=O)N[C@@H](Cc1cccc(Br)c1)C(N)=O [HT-267, Ac-D-Trp-Met-Asp-Phe(3-Br)-NH2]
basal field potential after administration (long-term potentiation) (neocortex of senile mice): enhanced, and the enhancement lasted for more than one hour
